Data reported in US8952024B2, “Herbicidal pyrimidone derivatives” (E I du Pont de Nemours and Company, priority 2009, dated 2015).

Experiments:
Type in all cases: in vivo
[1] = test system: pigweed (Amaranthus retroflexus); test: Test A pre-/postemergence plant response
From the text: (§1) Seeds of barnyardgrass (Echinochloa crus-galli), large crabgrass (Digitaria sanguinalis), giant foxtail (Setaria faberii), morningglory (Ipomoea spp.), pigweed (Amaranthus retroflexus), velvetleaf (Abutilon theophrasti), wheat (Triticum aestivum) and corn (Zea mays) were planted into a blend of loam soil and sand and treated preemergence with a directed soil spray using test chemicals formulated in a non-phytotoxic solvent mixture which included a surfactant. At the same time these species were also treated with postemergence applications of test compounds formulated in the same manner.
(§2) Plants ranged in height from two to ten cm and were in the one- to two-leaf stage for the postemergence treatment. Treated plants and untreated controls were maintained in a greenhouse for approximately ten days, after which time all treated plants were compared to untreated controls and visually evaluated for injury. Plant response ratings, summarized in Table A, are based on a 0 to 100 scale where 0 is no effect and 100 is complete control. A dash (-) response means no test result.

[2] = test system: corn (Zea mays); test: Test A pre-/postemergence plant response
From the text: as §1, §2

[3] = test system: morningglory (Ipomoea spp.); test: Test A pre-/postemergence plant response
From the text: as §1, §2

[4] = test system: giant foxtail (Setaria faberii); test: Test A pre-/postemergence plant response
From the text: as §1, §2

[5] = test system: velvetleaf (Abutilon theophrasti); test: Test A pre-/postemergence plant response
From the text: as §1, §2

[6] = test system: large crabgrass (Digitaria sanguinalis); test: Test A pre-/postemergence plant response
From the text: as §1, §2

[7] = test system: barnyardgrass (Echinochloa crus-galli); test: Test A pre-/postemergence plant response
From the text: as §1, §2

[8] = test system: wheat (Triticum aestivum); test: Test A pre-/postemergence plant response
From the text: as §1, §2

[9] = test system: umbrella sedge (Cyperus difformis); test: Test B flooded paddy test; conditions: for Plant response rating, Flood, Sedge, Umbrella: 250 g ai/ha, flooded paddy test, visual rating on 0 to 100 scale (0 no effect, 100 complete control) after 13 to 15 days; for Plant response rating, Sedge, Umbrella: Flood (flooded paddy test), 13 to 15 days; for Sedge, Umbrella plant response rating: Flood, 31 g ai/ha, scale 0 to 100 (0 no effect, 100 complete control)
Method in brief: (§3)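 Greenhouse-held for 13 to 15 days, treated pots were compared visually with controls and scored 0–100 (0, no effect). Treatment had been made into paddy water kept at 3 cm above the soil, with plants at the 2-leaf stage.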

[10] = test system: ducksalad (Heteranthera limosa); test: Test B flooded paddy test; conditions: for Plant response rating, Flood, Ducksalad: 250 g ai/ha, flooded paddy test, visual rating on 0 to 100 scale (0 no effect, 100 complete control) after 13 to 15 days; for Plant response rating, Ducksalad: Flood (flooded paddy test), 13 to 15 days; for Ducksalad plant response rating: Flood, 31 g ai/ha, scale 0 to 100 (0 no effect, 100 complete control)
Method in brief: as §3

[11] = test system: rice (Oryza sativa); test: Test B flooded paddy test; conditions: for Plant response rating, Flood, Rice: 250 g ai/ha, flooded paddy test, visual rating on 0 to 100 scale (0 no effect, 100 complete control) after 13 to 15 days; for Plant response rating, Rice: Flood (flooded paddy test), 13 to 15 days; for Rice plant response rating: Flood, 31 g ai/ha, scale 0 to 100 (0 no effect, 100 complete control)
Method in brief: as §3

[12] = test system: barnyardgrass (Echinochloa crus-galli); test: Test B flooded paddy test; conditions: for Plant response rating, Flood, Barnyardgrass: 250 g ai/ha, flooded paddy test, visual rating on 0 to 100 scale (0 no effect, 100 complete control) after 13 to 15 days; for Plant response rating, Barnyardgrass: Flood (flooded paddy test), 13 to 15 days; for Barnyardgrass plant response rating: Flood, 31 g ai/ha, scale 0 to 100 (0 no effect, 100 complete control)
Method in brief: as §3

[13] = Postemergence, 125 g ai/ha, 0 to 100 scale where 0 is no effect and 100 is complete control
[14] = Postemergence, 500 g ai/ha, 0 to 100 scale, 0 = no effect, 100 = complete control, approx. ten days
[15] = Preemergence, 125 g ai/ha, 0 to 100 scale, 0 = no effect, 100 = complete control
[16] = Preemergence, 500 g ai/ha, visual injury, 0 to 100 scale (0 no effect, 100 complete control), approx. ten days
[17] = 62 g ai/ha, scale of 0 to 100 where 0 is no effect and 100 is complete control
[18] = 125 g ai/ha, scale 0 to 100, 0 is no effect, 100 is complete control
[19] = Preemergence, 500 g ai/ha, 0 to 100 scale, 0 = no effect, 100 = complete control

Cc1cc(-n2c(-c3cccc(Cl)c3)ncc(C(=O)C3=C(O)CCCC3=O)c2=O)ccc1F [Compound 133]
90: Plant response rating, Foxtail, Giant [4, 14] | Plant response rating, Barnyardgrass [7, 14]
100: Plant response rating, Pigweed [1, 14] | Plant response rating, Pigweed [1, 16] | Plant response rating, Velvetleaf [5, 13] | Plant response rating, Velvetleaf [5, 14] | Plant response rating, Velvetleaf [5, 16] | Plant response rating, Crabgrass, Large [6, 14] | Plant response rating, Crabgrass, Large [6, 16] | Plant response rating, Barnyardgrass [7, 16] | Plant response rating, Flood, Sedge, Umbrella [9] | Plant response rating, Flood, Ducksalad [10] | Plant response rating, Ducksalad [10, 18]
0: Plant response rating, Corn [2, 15] | Plant response rating, Morningglory [3, 15] | Plant response rating, Morningglory [3, 16] | Plant response rating, Wheat [8, 15] | Sedge, Umbrella plant response rating [9] | Plant response rating, Flood, Rice [11] | Plant response rating, Rice [11, 17] | Plant response rating, Rice [11, 18] | Rice plant response rating [11] | Plant response rating, Flood, Barnyardgrass [12] | Plant response rating, Barnyardgrass [12, 17] | Plant response rating, Barnyardgrass [12, 18] | Barnyardgrass plant response rating [12]
70: Plant response rating, Morningglory [3, 14]
60: Plant response rating, Sedge, Umbrella [9, 17] | Plant response rating, Ducksalad [10, 17] | Ducksalad plant response rating [10]
10: Plant response rating, Corn [2, 13] | Plant response rating, Barnyardgrass [7, 15]
20: Plant response rating, Corn [2, 16] | Plant response rating, Foxtail, Giant [4, 13] | Plant response rating, Barnyardgrass [7, 13] | Plant response rating, Wheat [8, 13] | Plant response rating, Wheat [8, 16]
95: Plant response rating, Sedge, Umbrella [9, 18]
80: Plant response rating, Pigweed [1, 13] | Plant response rating, Foxtail, Giant [4, 16]
40: Plant response rating, Pigweed [1, 15] | Plant response rating, Corn [2, 14] | Plant response rating, Morningglory [3, 13] | Plant response rating, Foxtail, Giant [4, 15] | Plant response rating, Crabgrass, Large [6, 13] | Plant response rating, Wheat [8, 14]
50: Plant response rating, Velvetleaf [5, 15] | Plant response rating, Crabgrass, Large [6, 15]

CCCCn1c(-c2cccc(Br)c2)ncc(C(=O)C2=C(O)CCCC2=O)c1=O [Compound 138]
30: Plant response rating, Foxtail, Giant [4, 15]
50: Plant response rating, Pigweed [1, 15] | Plant response rating, Morningglory [3, 13]
80: Plant response rating, Velvetleaf [5, 16] | Plant response rating, Flood, Sedge, Umbrella [9] | Plant response rating, Flood, Ducksalad [10]
70: Plant response rating, Foxtail, Giant [4, 16] | Plant response rating, Crabgrass, Large [6, 13] | Plant response rating, Crabgrass, Large [6, 16] | Plant response rating, Sedge, Umbrella [9, 17] | Plant response rating, Ducksalad [10, 17]
0: Plant response rating, Corn [2, 15] | Plant response rating, Morningglory [3, 15] | Plant response rating, Morningglory [3, 16] | Plant response rating, Wheat [8, 13] | Plant response rating, Wheat [8, 15] | Plant response rating, Rice [11, 17] | Plant response rating, Barnyardgrass [12, 17]
40: Plant response rating, Crabgrass, Large [6, 15]
25: Plant response rating, Flood, Barnyardgrass [12]
60: Plant response rating, Foxtail, Giant [4, 13]
15: Plant response rating, Flood, Rice [11]
100: Plant response rating, Pigweed [1, 13] | Plant response rating, Pigweed [1, 14] | Plant response rating, Morningglory [3, 14] | Plant response rating, Velvetleaf [5, 13] | Plant response rating, Velvetleaf [5, 14]
20: Plant response rating, Corn [2, 13] | Plant response rating, Corn [2, 14] | Plant response rating, Corn [2, 16] | Plant response rating, Velvetleaf [5, 15] | Plant response rating, Barnyardgrass [7, 15] | Plant response rating, Wheat [8, 14] | Plant response rating, Wheat [8, 16]
90: Plant response rating, Pigweed [1, 16] | Plant response rating, Foxtail, Giant [4, 14] | Plant response rating, Crabgrass, Large [6, 14] | Plant response rating, Barnyardgrass [7, 13] | Plant response rating, Barnyardgrass [7, 14] | Plant response rating, Barnyardgrass [7, 16]

O=C1CCCC(O)=C1C(=O)c1cnc(-c2cccc(Cl)c2)n(CC2CCCO2)c1=O (stereo not shown) [Compound 142]
20: Plant response rating, Corn [2, 14] | Plant response rating, Foxtail, Giant [4, 16] | Plant response rating, Velvetleaf [5, 15] | Plant response rating, Wheat [8, 14]
65: Plant response rating, Sedge, Umbrella [9, 18]
0: Plant response rating, Corn [2, 13] | Plant response rating, Corn [2, 15] | Plant response rating, Corn [2, 16] | Plant response rating, Morningglory [3, 15] | Plant response rating, Foxtail, Giant [4, 15] | Plant response rating, Wheat [8, 13] | Plant response rating, Wheat [8, 15] | Plant response rating, Wheat [8, 16] | Plant response rating, Sedge, Umbrella [9, 17] | Sedge, Umbrella plant response rating [9] | Plant response rating, Ducksalad [10, 17] | Ducksalad plant response rating [10] | Plant response rating, Flood, Rice [11] | Plant response rating, Rice [11, 17] | Plant response rating, Rice [11, 18] | Rice plant response rating [11] | Plant response rating, Barnyardgrass [12, 17] | Plant response rating, Barnyardgrass [12, 18] | Barnyardgrass plant response rating [12]
30: Plant response rating, Foxtail, Giant [4, 13] | Plant response rating, Crabgrass, Large [6, 15]
70: Plant response rating, Crabgrass, Large [6, 13] | Plant response rating, Barnyardgrass [7, 13]
100: Plant response rating, Pigweed [1, 14] | Plant response rating, Pigweed [1, 16] | Plant response rating, Morningglory [3, 13] | Plant response rating, Morningglory [3, 14] | Plant response rating, Velvetleaf [5, 13] | Plant response rating, Velvetleaf [5, 14]
50: Plant response rating, Morningglory [3, 16]
60: Plant response rating, Velvetleaf [5, 16]
80: Plant response rating, Foxtail, Giant [4, 14] | Plant response rating, Crabgrass, Large [6, 16] | Plant response rating, Barnyardgrass [7, 16] | Plant response rating, Flood, Sedge, Umbrella [9] | Plant response rating, Flood, Ducksalad [10] | Plant response rating, Ducksalad [10, 18]
10: Plant response rating, Barnyardgrass [7, 15] | Plant response rating, Flood, Barnyardgrass [12]
90: Plant response rating, Pigweed [1, 13] | Plant response rating, Pigweed [1, 15] | Plant response rating, Crabgrass, Large [6, 14] | Plant response rating, Barnyardgrass [7, 14]

Cc1ccc(Cl)cc1-n1c(-c2cccc(Br)c2)ncc(C(=O)C2=C(O)CCCC2=O)c1=O [Compound 144]
0: Plant response rating, Pigweed [1, 15] | Plant response rating, Corn [2, 13] | Plant response rating, Corn [2, 15] | Plant response rating, Corn [2, 16] | Plant response rating, Morningglory [3, 15] | Plant response rating, Foxtail, Giant [4, 15] | Plant response rating, Barnyardgrass [7, 15] | Plant response rating, Wheat [8, 13] | Plant response rating, Wheat [8, 14] | Plant response rating, Wheat [8, 15] | Plant response rating, Wheat [8, 19] | Plant response rating, Barnyardgrass [12, 17] | Plant response rating, Barnyardgrass [12, 18] | Barnyardgrass plant response rating [12]
80: Plant response rating, Pigweed [1, 13]
40: Plant response rating, Foxtail, Giant [4, 13]
25: Plant response rating, Flood, Rice [11]
20: Plant response rating, Velvetleaf [5, 15] | Plant response rating, Barnyardgrass [7, 16] | Plant response rating, Rice [11, 17] | Plant response rating, Rice [11, 18] | Plant response rating, Flood, Barnyardgrass [12]
70: Plant response rating, Morningglory [3, 14] | Plant response rating, Velvetleaf [5, 19] | Plant response rating, Barnyardgrass [7, 13]
90: Plant response rating, Pigweed [1, 14] | Plant response rating, Pigweed [1, 16] | Plant response rating, Foxtail, Giant [4, 14] | Plant response rating, Crabgrass, Large [6, 14]
95: Plant response rating, Sedge, Umbrella [9, 18]
75: Plant response rating, Ducksalad [10, 18]
100: Plant response rating, Velvetleaf [5, 13] | Plant response rating, Velvetleaf [5, 14] | Plant response rating, Barnyardgrass [7, 14] | Plant response rating, Flood, Sedge, Umbrella [9] | Plant response rating, Flood, Ducksalad [10]
10: Plant response rating, Morningglory [3, 16] | Plant response rating, Foxtail, Giant [4, 16] | Plant response rating, Crabgrass, Large [6, 15]
65: Plant response rating, Sedge, Umbrella [9, 17]
30: Plant response rating, Corn [2, 14] | Plant response rating, Morningglory [3, 13] | Plant response rating, Crabgrass, Large [6, 16]
60: Plant response rating, Ducksalad [10, 17]
50: Plant response rating, Crabgrass, Large [6, 13] | Sedge, Umbrella plant response rating [9] | Ducksalad plant response rating [10]
15: Rice plant response rating [11]
